Glass transition temperature data for 45 molecules are collected here from the PolyMetriX glass transition set.

Molecules are shown by their SMILES.

`*C(=O)Nc1ccc(Oc2ccc(C3(c4ccc(Oc5ccc(NC(=O)c6ccc7c(c6)C(=O)N(c6ccc(Oc8ccc(C9(c%10ccc(Oc%11ccc(N%12C(=O)c%13ccc(*)cc%13C%12=O)cc%11)cc%10)NC(=O)c%10ccccc%109)cc8)cc6)C7=O)cc5)cc4)NC(=O)c4ccccc43)cc2)cc1` (repeat unit): the glass transition temperature came out at 330.00 °C. The molecule `*C(=O)Nc1ccc(Oc2ccc(C3(c4ccc(Oc5ccc(NC(=O)c6ccc7c(c6)C(=O)N(c6cccc(N8C(=O)c9ccc(*)cc9C8=O)c6)C7=O)cc5)cc4)NC(=O)c4ccccc43)cc2)cc1` (repeat unit) registered a glass transition temperature of 320.00 °C.

`*C(=O)Nc1ccc(Oc2ccc(N3C(=O)c4ccc(*)cc4C3=O)cc2)cc1` (repeat unit): the glass transition temperature was 295.00 °C. In turn, `*C(=O)Nc1ccc(Oc2ccc(NC(=O)c3ccc4c(c3)C(=O)N(C3CCC(CC5CCC(N6C(=O)c7ccc(*)cc7C6=O)CC5)CC3)C4=O)cc2)cc1` (repeat unit) came in with a glass transition temperature of 250.00 °C. With `*C(=O)Nc1ccc(Oc2ccc(NC(=O)c3ccc4c(c3)C(=O)N(c3ccc(Oc5ccc(C6(c7ccc(Oc8ccc(N9C(=O)c%10ccc(*)cc%10C9=O)cc8)cc7)NC(=O)c7ccccc76)cc5)cc3)C4=O)cc2)cc1` (repeat unit), the glass transition temperature was 325.00 °C.

The molecule `*C(=O)Nc1ccc(Oc2ccc(NC(=O)c3ccc4c(c3)C(=O)N(c3ccc(Oc5cccc6c(N7C(=O)c8ccc(*)cc8C7=O)cccc56)cc3)C4=O)cc2)cc1` (repeat unit) registered a glass transition temperature of 278.00 °C. In turn, `*C(=O)Nc1ccc(Oc2ccc(NC(=O)c3ccc4c(c3)C(=O)N(c3cccc(P(=O)(c5ccccc5)c5cccc(N6C(=O)c7ccc(*)cc7C6=O)c5)c3)C4=O)cc2)cc1` (repeat unit) registered a glass transition temperature of 235.00 °C. Regarding `*C(=O)Nc1ccc(Oc2ccc(Oc3ccc(NC(=O)c4ccc5c(c4)C(=O)N(c4ccc(Oc6ccc(C7(c8ccc(Oc9ccc(N%10C(=O)c%11ccc(*)cc%11C%10=O)cc9)cc8)NC(=O)c8ccccc87)cc6)cc4)C5=O)cc3)cc2)cc1` (repeat unit), the glass transition temperature is 300.00 °C. Turning to `*C(=O)Nc1ccc(Oc2ccc(Oc3ccc(NC(=O)c4ccc5c(c4)C(=O)N(c4ccc(S(=O)(=O)c6ccc(N7C(=O)c8ccc(*)cc8C7=O)cc6)cc4)C5=O)cc3)cc2)cc1` (repeat unit), the glass transition temperature came to 243.00 °C. `*C(=O)Nc1ccc(Oc2ccc(S(=O)(=O)c3ccc(Oc4ccc(NC(=O)c5ccc6c(c5)C(=O)N(c5ccc(Oc7ccc(C8(c9ccc(Oc%10ccc(N%11C(=O)c%12ccc(*)cc%12C%11=O)cc%10)cc9)NC(=O)c9ccccc98)cc7)cc5)C6=O)cc4)cc3)cc2)cc1` (repeat unit): the glass transition temperature stood at 302.00 °C. `*C(=O)c1ccc2c(c1)C(=O)N(c1ccc(Oc3ccc(C(=O)c4ccc(C(=O)c5ccc(Oc6ccc(N7C(=O)c8ccc(*)cc8C7=O)cc6)cc5)cc4)cc3)cc1)C2=O` (repeat unit): the glass transition temperature amounted to 233.00 °C. The value for `*Cc1ccc2oc(=O)c(C(=O)Nc3ccc(Oc4ccc(NC(=O)c5cc6cc(*)ccc6oc5=O)cc4)cc3)cc2c1` (repeat unit) was 312.00 °C. `*Cc1ccc2oc(=O)c(C(=O)Nc3ccc(Oc4ccc(Oc5ccc(NC(=O)c6cc7cc(*)ccc7oc6=O)cc5)cc4)cc3)cc2c1` (repeat unit) had a glass transition temperature of 290.00 °C. Molecule `*Nc1ccc(Oc2ccc(Nc3ccc4c(c3)c3cc(*)ccc3n4CC(CC)CCCC)cc2)cc1` (repeat unit) gave a glass transition temperature of 220.00 °C. Molecule `*Oc1ccc(-c2ccc(Oc3ccc(C(=O)c4ccc(C(=O)c5ccc(*)cc5)cc4)cc3)cc2)cc1` (repeat unit) had a glass transition temperature of 173.00 °C. `*Oc1ccc(C2(c3ccc(Oc4ccc(C(=O)c5ccc(C(=O)c6ccc(*)cc6)cc5)cc4)cc3)c3ccccc3-c3ccccc32)cc1` (repeat unit) gave a glass transition temperature of 243.00 °C.

The molecule `*Oc1ccc(NC(=C(C#N)C#N)c2ccc(-c3ccc(C(Nc4ccc(*)cc4)=C(C#N)C#N)cc3)cc2)cc1` (repeat unit) came in with a glass transition temperature of 220.00 °C. In turn, `*Oc1ccc(NC(=C(C#N)C#N)c2cccc(C(Nc3ccc(Oc4ccc(NC(=O)c5ccc(C(=O)Nc6ccc(*)cc6)cc5)cc4)cc3)=C(C#N)C#N)c2)cc1` (repeat unit) registered a glass transition temperature of 274.00 °C. Take `*Oc1ccc(NC(=O)c2ccc(C(=O)Nc3ccc(Oc4ccc(C5(c6ccc(*)cc6)C6CC7CC(C6)CC5C7)cc4)cc3)c3ccccc23)cc1` (repeat unit): the glass transition temperature worked out at 269.00 °C. Take `*Oc1ccc(NC(=O)c2ccc(C(=O)Nc3ccc(Oc4ccc(C5(c6ccc(*)cc6)C6CC7CC(C6)CC5C7)cc4)cc3)cc2)cc1` (repeat unit): the glass transition temperature came to 264.00 °C. In the case of `*Oc1ccc(NC(=O)c2ccc(Oc3ccc(C(=O)Nc4ccc(*)cc4)cc3)cc2)cc1` (repeat unit), the glass transition temperature came to 274.00 °C. Turning to `*Oc1ccc(NC(=O)c2cccc(C(=O)Nc3ccc(Oc4ccc(C5(c6ccc(*)cc6)C6CC7CC(C6)CC5C7)cc4)cc3)c2)cc1` (repeat unit), the glass transition temperature was found to be 273.00 °C. For `*Oc1ccc(Nc2ccc(/N=N/c3ccc(Nc4ccc(*)cc4)cc3)cc2)cc1` (repeat unit), the glass transition temperature was 169.00 °C. Take `*Oc1ccc(Oc2ccc(C(=O)Nc3ccc(Oc4ccc(NC(=O)c5ccc(*)cc5)cc4)cc3)cc2)cc1-c1ccccc1` (repeat unit): the glass transition temperature amounted to 219.00 °C. In turn, `*Oc1ccc(Oc2ccc(C(=O)Nc3ccc(Oc4ccc(S(=O)(=O)c5ccc(Oc6ccc(NC(=O)c7ccc(*)cc7)cc6)cc5)cc4)cc3)cc2)cc1-c1ccccc1` (repeat unit) had a glass transition temperature of 231.00 °C. `*Oc1ccc(Oc2ccc(C(=O)c3ccc(C(=O)c4ccc(*)cc4)c4ccccc34)cc2)cc1` (repeat unit) returned a glass transition temperature of 200.03 °C. Molecule `*Oc1ccc(Oc2ccc(NC(=C(C#N)C#N)c3cccc(C(Nc4ccc(*)cc4)=C(C#N)C#N)c3)cc2)cc1` (repeat unit) showed a glass transition temperature of 228.00 °C. Turning to `*Oc1ccc(Oc2ccc(NC(=O)c3ccc(Oc4ccc(Oc5ccc(C(=O)Nc6ccc(*)cc6)cc5)cc4)cc3)cc2)cc1` (repeat unit), the glass transition temperature came to 236.00 °C. As to `*Oc1ccc2ccc(Oc3ccc(C(=O)Nc4ccc(Oc5ccc(Oc6ccc(NC(=O)c7ccc(*)cc7)cc6)cc5)cc4)cc3)cc2c1` (repeat unit), the glass transition temperature is 191.00 °C. `*Oc1ccc2ccc(Oc3ccc(C(=O)Nc4ccc(Oc5ccc(S(=O)(=O)c6ccc(Oc7ccc(NC(=O)c8ccc(*)cc8)cc7)cc6)cc5)cc4)cc3)cc2c1` (repeat unit) returned a glass transition temperature of 227.00 °C. On to `*Oc1cccc2ccc(Oc3ccc(NC(=O)c4ccc(Oc5ccc(Oc6ccc(C(=O)Nc7ccc(*)cc7)cc6)cc5)cc4)cc3)cc12` (repeat unit), for which the glass transition temperature is 224.00 °C. In the case of `*Oc1cccc2ccc(Oc3ccc(NC(=O)c4ccc(Oc5ccc(S(=O)(=O)c6ccc(Oc7ccc(C(=O)Nc8ccc(*)cc8)cc7)cc6)cc5)cc4)cc3)cc12` (repeat unit) it was 218.00 °C; in that of `*Oc1cccc2ccc(Oc3ccc(NC(=O)c4ccc(Oc5cccc(Oc6ccc(C(=O)Nc7ccc(*)cc7)cc6)c5)cc4)cc3)cc12` (repeat unit), 196.00 °C; in that of `*Oc1cccc2ccc(Oc3ccc(NC(=O)c4ccc(Oc5ccccc5Oc5ccc(C(=O)Nc6ccc(*)cc6)cc5)cc4)cc3)cc12` (repeat unit), 180.00 °C. On to `*c1ccc(C(=O)Nc2ccc(Oc3ccc(NC(=O)c4ccc(-n5c(=O)c6cc7c(=O)n(*)c(=O)c7cc6c5=O)cc4)cc3)cc2)cc1` (repeat unit), for which the glass transition temperature amounted to 360.00 °C. Regarding `*c1ccc(C(=O)Nc2ccc(Oc3ccc(NC(=O)c4ccc(Oc5ccc(-c6nn(*)c(=O)c7ccccc67)cc5)cc4)cc3)cc2)cc1` (repeat unit), the glass transition temperature was determined as 280.00 °C.

Take `*c1ccc(C(=O)Nc2ccc(Oc3ccc(S(=O)(=O)c4ccc(Oc5ccc(NC(=O)c6ccc(N7C(=O)c8ccc(-c9ccc%10c(c9)C(=O)N(*)C%10=O)cc8C7=O)cc6)cc5)cc4)cc3)cc2)cc1` (repeat unit): the glass transition temperature is 258.00 °C. The molecule `*c1ccc(Oc2ccc(-c3nc4cc(Oc5ccc(NC(=O)c6cc(C(=O)Nc7ccc(Oc8ccc9nc(-c%10ccc([N+](=O)[O-])cc%10)c(*)nc9c8)cc7)cc(N7C(=O)c8ccccc8C7=O)c6)cc5)ccc4nc3-c3ccc([N+](=O)[O-])cc3)cc2)cc1` (repeat unit) displayed a glass transition temperature of 305.00 °C. Take `*c1ccc(Oc2ccc(C(=O)c3ccc(C(=O)c4ccc(Oc5ccc(-c6nc(-c7cccc(-c8nc(*)c(-c9ccccc9)[nH]8)c7)[nH]c6-c6ccccc6)cc5)cc4)cc3)cc2)cc1` (repeat unit): the glass transition temperature stood at 262.00 °C. Consider `*c1ccc(Oc2ccc(NC(=O)c3ccc4c(c3)C(=O)N(c3ccc(Sc5ccc(N6C(=O)c7ccc(C(=O)Nc8ccc(Oc9ccc(C%10(*)NC(=O)c%11ccccc%11%10)cc9)cc8)cc7C6=O)cc5)cc3)C4=O)cc2)cc1` (repeat unit), for which the glass transition temperature turned out to be 298.00 °C. `*c1ccc(Oc2ccc(NC(=O)c3cccc(Oc4ccc5c(c4)C(=O)N(*)C5=O)c3)cc2)cc1` (repeat unit) showed a glass transition temperature of 231.00 °C.

`*c1ccc(Oc2ccc3ccccc3c2-c2c(Oc3ccc(N4C(=O)c5ccc(NC(=O)Nc6ccc(Oc7ccc(NC(=O)Nc8ccc9c(c8)C(=O)N(*)C9=O)cc7)cc6)cc5C4=O)cc3)ccc3ccccc23)cc1` (repeat unit) returned a glass transition temperature of 274.00 °C. The value for `*c1ccc2c(c1)C(=O)N(c1ccc(C(=O)Nc3ccc(Oc4ccc(Oc5ccc(NC(=O)c6ccc(N7C(=O)c8ccc(C(*)(C(F)(F)F)C(F)(F)F)cc8C7=O)cc6)cc5)cc4)cc3)cc1)C2=O` (repeat unit) was 303.00 °C; that for `*c1cccc(C(=O)Nc2ccc(Oc3ccc(NC(=O)c4cccc(N5C(=O)c6ccc(-c7cccc8c7C(=O)N(*)C8=O)cc6C5=O)c4)cc3)cc2)c1` (repeat unit) was 291.00 °C; that for `*c1cccc(C(=O)Nc2ccc(Oc3ccc(Oc4ccc(Oc5ccc(NC(=O)c6cccc(N7C(=O)c8ccc(-c9cccc%10c9C(=O)N(*)C%10=O)cc8C7=O)c6)cc5)cc4)cc3)cc2)c1` (repeat unit) was 260.00 °C.
